Experimental findings from PubChem BioAssay (NCI) are described below.

Among the test systems are SF-539 CNS; M14 melanoma; HCC-2998 colon; SNB-75 CNS; MCF7 breast; EKVX NSCLC; SN12C renal; MDA-N; LOX IMVI melanoma; NCI/ADR-RES ovarian; T-47D breast; 786-0 renal; SK-MEL-28 melanoma; SW-620 colon; OVCAR-5 ovarian; MDA-MB-231 breast; DU-145 prostate; K-562 leukemia.
Common to all, as to experiment: DTP human tumour cell line panel, 48 h

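Grown in 96-well plates, cells were treated for 48 hours with each compound at five concentrations. Insufficient inhibition: endpoint recorded as highest concentration tested. Definition used: TGI = concentration required for complete inhibition of growth.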

Consider `Cc1ccc(/C=N/Nc2ncccn2)s1`, for which the TGI with SF-539 CNS, with M14 melanoma, in the experiment on HCC-2998 colon, with SNB-75 CNS, with MCF7 breast and in the experiment on EKVX NSCLC was over 100 µM each time. The TGI in the experiment on SN12C renal, with MDA-N, with LOX IMVI melanoma, in the experiment on NCI/ADR-RES ovarian, with T-47D breast and in the experiment with 786-0 renal was over 100 µM in each case. For the same molecule, the TGI with SK-MEL-28 melanoma, in the experiment on SW-620 colon, with OVCAR-5 ovarian and in the experiment on MDA-MB-231 breast was over 100 µM in each case.

Regarding `CCC1(C)N=C(C(N)=O)c2ncn(N=C(C)C)c2N1` (configuration not stated), the TGI in the experiment on SF-539 CNS, in the experiment on DU-145 prostate, in the experiment on M14 melanoma, with HCC-2998 colon, in the experiment with SNB-75 CNS and with EKVX NSCLC was over 100 µM throughout. The TGI in the experiment on K-562 leukemia, in the experiment with SN12C renal, in the experiment with MDA-N, in the experiment with LOX IMVI melanoma, with NCI/ADR-RES ovarian and in the experiment on T-47D breast was over 100 µM in each case. Besides, the TGI with 786-0 renal, in the experiment on SK-MEL-28 melanoma, with SW-620 colon, with OVCAR-5 ovarian and in the experiment with MDA-MB-231 breast was over 100 µM throughout.

Turning to `CC(C)(C)/C(O)=C\c1nc2cc(C(F)(F)F)ccc2[nH]c1=O`, the TGI in the experiment with DU-145 prostate, in the experiment with M14 melanoma, in the experiment on SNB-75 CNS, in the experiment with EKVX NSCLC, with K-562 leukemia and in the experiment on SN12C renal was over 100 µM each time. Besides, the TGI in the experiment with MDA-N, in the experiment on LOX IMVI melanoma, with NCI/ADR-RES ovarian, with T-47D breast, with 786-0 renal and in the experiment on SK-MEL-28 melanoma was over 100 µM each time. Moreover, the TGI in the experiment with SW-620 colon, in the experiment on OVCAR-5 ovarian and with MDA-MB-231 breast was over 100 µM throughout.

For `CCCc1c2c3ccccc3nc-2nc2ccccn12`, the TGI in the experiment on SF-539 CNS, in the experiment with DU-145 prostate, in the experiment on M14 melanoma, with SNB-75 CNS, in the experiment with EKVX NSCLC and in the experiment on K-562 leukemia was over 100 µM in each case. Further, the TGI with SN12C renal, in the experiment on MDA-N, in the experiment with LOX IMVI melanoma, in the experiment with NCI/ADR-RES ovarian, in the experiment with T-47D breast and in the experiment on 786-0 renal was over 100 µM each time. The TGI is over 100 µM in the experiment on SK-MEL-28 melanoma, over 100 µM in the experiment on SW-620 colon, 88.1 µM with OVCAR-5 ovarian and over 100 µM in the experiment with MDA-MB-231 breast.

As for `COC(=O)C1=C(O)C(C(=O)OC)[C@]2(O)[C@H](C(=O)OC)[C@H]1C[C@@H](c1ccc(OC)cc1)[C@H]2C(=O)OC` (some centres not stated), the TGI in the experiment on SF-539 CNS is over 100 µM; in the experiment with M14 melanoma it was 66.6 µM; with HCC-2998 colon it was 37.8 µM; in the experiment on SNB-75 CNS, 91.8 µM; in the experiment with MCF7 breast it was over 100 µM; in the experiment with EKVX NSCLC it was over 100 µM. In addition, the TGI in the experiment on K-562 leukemia was over 100 µM; with SN12C renal, 53.9 µM; in the experiment with MDA-N it was 40.7 µM; in the experiment with LOX IMVI melanoma it was 78.5 µM; in the experiment on NCI/ADR-RES ovarian, over 100 µM; in the experiment on T-47D breast it was over 100 µM. The TGI was 47.3 µM in the experiment on 786-0 renal; over 100 µM in the experiment on SK-MEL-28 melanoma; over 100 µM in the experiment with SW-620 colon; 51.9 µM in the experiment on OVCAR-5 ovarian; 75.3 µM in the experiment on MDA-MB-231 breast.

With `NNC(=O)c1n[nH]nc1SSc1n[nH]nc1C(=O)NN`, the TGI in the experiment on SF-539 CNS, in the experiment with DU-145 prostate, in the experiment with M14 melanoma, in the experiment with HCC-2998 colon, in the experiment with SNB-75 CNS and in the experiment on MCF7 breast was over 100 µM throughout. The TGI with EKVX NSCLC, with SN12C renal, in the experiment on MDA-N, with LOX IMVI melanoma, with NCI/ADR-RES ovarian and in the experiment on 786-0 renal was over 100 µM each time. The TGI in the experiment with SK-MEL-28 melanoma, in the experiment with SW-620 colon, with OVCAR-5 ovarian and in the experiment with MDA-MB-231 breast was over 100 µM each time.

Take `CCOC(=O)c1c(SCCO)n(-c2ccccc2)c(=S)n(-c2ccccc2)c1=O`: the TGI with DU-145 prostate, in the experiment with M14 melanoma, in the experiment with SNB-75 CNS, in the experiment with MCF7 breast, with EKVX NSCLC and in the experiment with K-562 leukemia was over 100 µM each time. Moreover, the TGI in the experiment with SN12C renal, in the experiment with MDA-N, in the experiment on LOX IMVI melanoma, in the experiment with NCI/ADR-RES ovarian, with T-47D breast and in the experiment with 786-0 renal was over 100 µM each time. The TGI in the experiment with SK-MEL-28 melanoma, in the experiment on SW-620 colon and in the experiment on OVCAR-5 ovarian was over 100 µM throughout.

As to `CCCCCCCCCN1CCC(=O)C(C(=O)OC)C1` (configuration not stated), the TGI turned out to be 36.5 µM with SF-539 CNS; 29.3 µM in the experiment on DU-145 prostate; 29.2 µM with M14 melanoma; 33.8 µM in the experiment with HCC-2998 colon; 34 µM with SNB-75 CNS; 24.9 µM in the experiment with MCF7 breast. In addition, the TGI with EKVX NSCLC amounted to 34 µM; in the experiment on SN12C renal it was 29.5 µM; with MDA-N it was 29.5 µM; in the experiment on LOX IMVI melanoma, 26.1 µM; with NCI/ADR-RES ovarian, 26.8 µM; in the experiment with T-47D breast, 28.3 µM. Besides, the TGI in the experiment with 786-0 renal was 30.6 µM; with SW-620 colon, 27.9 µM; in the experiment with OVCAR-5 ovarian it was 29 µM.

As a reminder, the TGI is the concentration giving total growth inhibition. Read a low TGI as more potent growth arrest.
